# Results as given in patent US20250213448A1, “COMPOSITION FOR PROTECTING SKIN CONTAINING A THYMOL ESTER-BASED COMPOUND” (Amorepacific Corporation, priority 2024, published 2025).
# System: Normal human epidermal melanocytes
# Test: Damage inhibition experiment using normal human melanocytes (UVB photoaging, real-time PCR gene expression)
# Format: cell-based
# Procedure: Melanocytes isolated from normal human skin (Normal human epidermal melanocytes) were treated with ultraviolet B (312 nm) at 20 mJ each, once a day, for two days, and cultured for one month. Melasolv was dissolved in DMSO at 1000×, irradiated with ultraviolet rays, and then immediately placed in a culture medium at 1 and 5 ppm and treated. The cells were grown in a 37° C., 5% CO2 incubator while changing the culture medium containing the experimental material every two days. After the experiment was completed, the cells were dissolved in TRIzol and collected, and total RNA was isolated. Then, cDNA was synthesized therefrom and real-time PCR was performed to compare the relative expression levels of each gene. The RNA was quantified and the same amount of RNA was added to each experimental group, and the expression of each gene was corrected by the expression of GAPDH, a house-keeping gene, to compare the relative expression levels.
# The gene primers used were purchased from APPLIED BIOSYSTEMS as follows: […]
structure (smiles),measurement,setting,value
"COc1cc(/C=C/C(=O)Oc2cc(C)ccc2C(C)C)cc(OC)c1OC [Melasolv, (5-methyl-2-propan-2-ylphenyl) (E)-3-(3,4,5-trimethoxyphenyl) prop-2-enoate]",expression of the XPA gene,"UVB-photoaged melanocytes, 5 ppm of Melasolv, compared with control group, FIG. 4",increased even higher than that of the control group
same,"expression of aging genes (p16, p21)","melanocytes irradiated with UVB (312 nm, 20 mJ, once a day for two days), cultured one month, Melasolv at 1 and 5 ppm, real-time PCR corrected by GAPDH, FIGS. 1 and 2",inhibited in a concentration-dependent manner
same,"expression of DNA repair genes (APEX1, XPA, RPA1) that had decreased due to photoaging","melanocytes irradiated with UVB (312 nm, 20 mJ, once a day for two days), cultured one month, Melasolv at 1 and 5 ppm, real-time PCR corrected by GAPDH, FIGS. 3 to 5",increased
